Data from patent US12371454B2, “Cyclic peptide compound having Kras inhibitory action” (priority 2019, dated 2025).
pIC50: −log10 of the molar value. Starred links: 1 amine or outer side, 2 acyl side, 3 side chain; linkers in the order of their positions; H or OH if unused. Positions of bridges follow the written chain, without caps; N, C: chain ends. Non-standard residues stand in square brackets, D forms with d. Residues, ends and D or L forms follow the SMILES beside them. *: point of attachment. hPhe(3,5-F2-4-CF3) = N[C@@H](CCc1cc(F)c(C(F)(F)F)c(F)c1)C(=O)O; hPhe(3-Cl-4-CF3) = N[C@@H](CCc1ccc(C(F)(F)F)c(Cl)c1)C(=O)O; hPhe(3-F,4-CF3) = N[C@@H](CCc1ccc(C(F)(F)F)c(F)c1)C(=O)O; NMePhe(4-CF3) = CN[C@@H](Cc1ccc(C(F)(F)F)cc1)C(=O)O; hPhe(4-Cl) = N[C@@H](CCc1ccc(Cl)cc1)C(=O)O; NMedβ3hAla = C[C@H](CC(=O)[*:2])N(C)[*:1]; NMeAla(cPent) = CN[C@@H](CC1CCCC1)C(=O)O; NMeGly(cPent) = CN[C@H](C(=O)O)C1CCCC1; Pro(4,4-F2) = O=C(O)[C@@H]1CC(F)(F)CN1; NMeAla(cPr) = CN[C@@H](CC1CC1)C(=O)O; NMeCha = CN[C@@H](CC1CCCCC1)C(=O)O; Gly(N-(CH2)2OEt) = CCOCCNCC(=O)O; NMeChg = CN[C@H](C(=O)O)C1CCCCC1; NMeI = CC[C@H](C)[C@H](NC)C(=O)O; d(β3hL) = CC(C)C[C@@H](N)CC(=O)O; NMeD = CN[C@@H](CC(=O)O)C(=O)O; NMeL = CN[C@@H](CC(C)C)C(=O)O; NMeV = CN[C@H](C(=O)O)C(C)C; d(β3hA) = C[C@@H](N)CC(=O)O; Azetidin(1-yl) = C1CN(*)C1; NMeS = CN[C@@H](CO)C(=O)O; Morpholide = C1CN(*)CCO1; NMeA = CN[C@@H](C)C(=O)O; Piperidide = C1CCN(*)CC1; Pyrrolidide = C1CCN(*)C1; Ac5c = NC1(C(=O)O)CCCC1; Aze = O=C(O)[C@@H]1CCN1; CH2CMe2OH = CC(C)(O)C*; Cyclobutyl = C1CC(*)C1; Sar = CNCC(=O)O; Propyl = CCC*

System: Human pancreatic cancer cell line AsPC-1
Assay: Measurement of AsPC-1 cell growth inhibition (AsPC-1 CGI)
Format: cell-based
Conditions: 96 h
How it was run: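 AsPC-1 cells in 15% FBS RPMI-1640 were exposed to test compound for 96 hours at 37° C, with CellTiter-Glo as endpoint.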

Compound | pIC50
CC[C@H](C)[C@@H]1NC(=O)[C@H](COC2CCC2)N(C)C(=O)C[C@@H](C(=O)N2CCCCC2)N(C)C(=O)[C@H](C(C)C)N(C)C(=O)C2(CCCC2)NC(=O)[C@@H]2CCCN2C(=O)[C@H](CCc2ccc(C(F)(F)F)c(Cl)c2)NC(=O)CN(C)C(=O)[C@H](CC2CCCCC2)N(C)C(=O)[C@@H]2CCN2C(=O)[C@H](C)N(C)C1=O [Compound 755] ([NMeS](Cyclobutyl)I[NMeA][Aze][NMeCha][Sar][hPhe(3-Cl-4-CF3)]P[Ac5c][NMeV][NMeD]-Piperidide; lactam N-11) | 6.30 to 7.00
CC[C@H](C)[C@@H]1NC(=O)[C@H](CC2CC2)N(C)C(=O)C[C@@H](C)NC(=O)[C@H](C(C)C)N(C)C(=O)C2(CCCC2)NC(=O)[C@@H]2CCCN2C(=O)[C@H](CCc2ccc(C(F)(F)F)c(Cl)c2)NC(=O)CN(C)C(=O)[C@H](CC2CCCCC2)N(C)C(=O)[C@@H]2CCN2C(=O)[C@H](C)N(C)C1=O [Compound 771] (cyclo([Ac5c][NMeV][d(β3hA)][NMeAla(cPr)]I[NMeA][Aze][NMeCha][Sar][hPhe(3-Cl-4-CF3)]P)) | 6.30 to 7.00
CCCOC[C@H]1C(=O)N(C)CC(=O)N[C@@H](CCc2ccc(C(F)(F)F)c(F)c2)C(=O)N2CCC[C@H]2C(=O)NC2(CCCC2)C(=O)N(C)[C@@H](C2CCCC2)C(=O)N(C)[C@H](C)CC(=O)N(C)[C@@H](CC(C)C)C(=O)N[C@@H]([C@@H](C)CC)C(=O)N(C)[C@@H](C)C(=O)N2CC[C@H]2C(=O)N1C [Compound 776] (cyclo([Ac5c][NMeGly(cPent)][NMedβ3hAla][NMeL]I[NMeA][Aze][NMeS](Propyl)[Sar][hPhe(3-F,4-CF3)]P)) | 7.30 to 7.70
CC[C@H](C)[C@@H]1NC(=O)[C@H](CC(C)C)N(C)C(=O)C[C@@H](C(=O)N2CCCCC2)N(C)C(=O)[C@H](C2CCCCC2)N(C)C(=O)C2(CCCC2)NC(=O)[C@H](COCC(C)(C)O)N(C)C(=O)[C@H](CCc2ccc(C(F)(F)F)c(Cl)c2)NC(=O)CN(C)C(=O)[C@H](CC2CCCCC2)N(C)C(=O)CN(C)C(=O)CN(C)C1=O [Compound 789] ([NMeL]I[Sar][Sar][NMeCha][Sar][hPhe(3-Cl-4-CF3)][NMeS](CH2CMe2OH)[Ac5c][NMeChg][NMeD]-Piperidide; lactam N-11) | 6.30 to 7.00
CC[C@H](C)[C@@H]1NC(=O)[C@H](CC(C)C)N(C)C(=O)C[C@@H](C(=O)N2CCOCC2)N(C)C(=O)[C@H]([C@@H](C)CC)N(C)C(=O)C2(CCCC2)NC(=O)[C@@H]2CCCN2C(=O)[C@H](CCc2ccc(C(F)(F)F)c(F)c2)NC(=O)CN(C)C(=O)[C@H](CC2CCCCC2)N(C)C(=O)[C@@H]2CCN2C(=O)[C@H](C)N(C)C1=O [Compound 790] ([NMeL]I[NMeA][Aze][NMeCha][Sar][hPhe(3-F,4-CF3)]P[Ac5c][NMeI][NMeD]-Morpholide; lactam N-11) | 7.30 to 7.70
CC[C@H](C)[C@@H]1NC(=O)[C@H](CC(C)C)N(C)C(=O)C[C@@H](CC(C)C)NC(=O)[C@H]([C@@H](C)CC)N(C)C(=O)C2(CCCC2)NC(=O)[C@@H]2CCCN2C(=O)[C@H](CCc2ccc(C(F)(F)F)c(Cl)c2)NC(=O)CN(C)C(=O)[C@H](CC2CCCCC2)N(C)C(=O)[C@@H]2CCN2C(=O)[C@H](C)N(C)C1=O [Compound 798] (cyclo([Ac5c][NMeI][d(β3hL)][NMeL]I[NMeA][Aze][NMeCha][Sar][hPhe(3-Cl-4-CF3)]P)) | 6.30 to 7.00
CC[C@H](C)[C@@H]1NC(=O)[C@H](CC(C)C)N(C)C(=O)C[C@@H](C(=O)N2CCCCC2)N(C)C(=O)[C@H]([C@@H](C)CC)N(C)C(=O)C2(CCCC2)NC(=O)[C@@H]2CCCN2C(=O)[C@H](CCc2ccc(C(F)(F)F)c(Cl)c2)NC(=O)CN(C)C(=O)[C@H](C2CCCC2)N(C)C(=O)[C@@H]2CCN2C(=O)[C@H](C)N(C)C1=O [Compound 807] ([NMeL]I[NMeA][Aze][NMeGly(cPent)][Sar][hPhe(3-Cl-4-CF3)]P[Ac5c][NMeI][NMeD]-Piperidide; lactam N-11) | 7.30 to 7.70
CCCOC[C@H]1C(=O)N(C)CC(=O)N[C@@H](CCc2ccc(C(F)(F)F)c(F)c2)C(=O)N2CCC[C@H]2C(=O)NC2(CCCC2)C(=O)N(C)[C@@H]([C@@H](C)CC)C(=O)N(C)[C@H](C(=O)N2CCOCC2)CC(=O)N(C)[C@@H](CC(C)C)C(=O)N[C@@H]([C@@H](C)CC)C(=O)N(C)[C@@H](C)C(=O)N2CC[C@H]2C(=O)N1C [Compound 827] ([NMeL]I[NMeA][Aze][NMeS](Propyl)[Sar][hPhe(3-F,4-CF3)]P[Ac5c][NMeI][NMeD]-Morpholide; lactam N-11) | 7.30 to 7.70
CC[C@H](C)[C@@H]1NC(=O)[C@H](CC(C)C)N(C)C(=O)C[C@@H](C)N(C)C(=O)[C@H]([C@@H](C)CC)N(C)C(=O)C2(CCCC2)NC(=O)[C@@H]2CCCN2C(=O)[C@H](CCc2ccc(C(F)(F)F)c(F)c2)NC(=O)CN(C)C(=O)[C@H](CC2CCCCC2)N(C)C(=O)[C@@H]2CCN2C(=O)[C@H](C)N(C)C1=O [Compound 859] (cyclo([Ac5c][NMeI][NMedβ3hAla][NMeL]I[NMeA][Aze][NMeCha][Sar][hPhe(3-F,4-CF3)]P)) | 7.00 to 7.30
CC[C@H](C)[C@@H]1NC(=O)[C@H](CC(C)C)N(C)C(=O)C[C@@H](C(=O)N2CCCC2)N(C)C(=O)[C@H]([C@@H](C)CC)N(C)C(=O)C2(CCCC2)NC(=O)[C@@H]2CCCN2C(=O)[C@H](CCc2ccc(C(F)(F)F)c(F)c2)NC(=O)CN(C)C(=O)[C@H](CC2CCCCC2)N(C)C(=O)[C@@H]2CCN2C(=O)[C@H](C)N(C)C1=O [Compound 868] ([NMeL]I[NMeA][Aze][NMeCha][Sar][hPhe(3-F,4-CF3)]P[Ac5c][NMeI][NMeD]-Pyrrolidide; lactam N-11) | 7.30 to 7.70
CCOCCN1CC(=O)NC2(CCCC2)C(=O)N(C)[C@@H](C2CCCCC2)C(=O)N(C)[C@H](C(=O)N2CCCCC2)CC(=O)N(C)[C@@H](CC(C)C)C(=O)N[C@@H]([C@@H](C)CC)C(=O)N(C)CC(=O)N(C)CC(=O)N(C)[C@@H](CC2CCCCC2)C(=O)N(C)CC(=O)N[C@@H](CCc2ccc(C(F)(F)F)c(Cl)c2)C1=O [Compound 872] ([NMeL]I[Sar][Sar][NMeCha][Sar][hPhe(3-Cl-4-CF3)][Gly(N-(CH2)2OEt)][Ac5c][NMeChg][NMeD]-Piperidide; lactam N-11) | 6.30 to 7.00
CC[C@H](C)[C@@H]1NC(=O)[C@H](C2CCCCC2)N(C)C(=O)C[C@@H](C)NC(=O)[C@H](C(C)C)N(C)C(=O)C2(CCCC2)NC(=O)[C@@H]2CCCN2C(=O)[C@H](CCc2ccc(C(F)(F)F)c(Cl)c2)NC(=O)CN(C)C(=O)[C@H](CC2CCCCC2)N(C)C(=O)[C@@H]2CCN2C(=O)[C@H](C)N(C)C1=O [Compound 873] (cyclo([Ac5c][NMeV][d(β3hA)][NMeChg]I[NMeA][Aze][NMeCha][Sar][hPhe(3-Cl-4-CF3)]P)) | 6.30 to 7.00
CC[C@H](C)[C@@H]1NC(=O)[C@H](CC(C)C)N(C)C(=O)C[C@@H](C(=O)N2CCCCC2)N(C)C(=O)[C@H]([C@@H](C)CC)N(C)C(=O)C2(CCCC2)NC(=O)[C@@H]2CCCN2C(=O)[C@H](CCc2ccc(C(F)(F)F)c(Cl)c2)NC(=O)CN(C)C(=O)[C@H](COC2CCC2)N(C)C(=O)[C@@H]2CCN2C(=O)[C@H](C)N(C)C1=O [Compound 885] ([NMeL]I[NMeA][Aze][NMeS](Cyclobutyl)[Sar][hPhe(3-Cl-4-CF3)]P[Ac5c][NMeI][NMeD]-Piperidide; lactam N-11) | 7.30 to 7.70
CC[C@H](C)[C@@H]1NC(=O)[C@H](CC(C)C)N(C)C(=O)C[C@@H](C)N(C)C(=O)[C@H](C2CCCC2)N(C)C(=O)C2(CCCC2)NC(=O)[C@@H]2CC(F)(F)CN2C(=O)[C@H](CCc2cc(F)c(C(F)(F)F)c(F)c2)NC(=O)CN(C)C(=O)[C@H](Cc2ccc(C(F)(F)F)cc2)N(C)C(=O)[C@@H]2CCN2C(=O)[C@H](C)N(C)C1=O [Compound 900] (cyclo([Ac5c][NMeGly(cPent)][NMedβ3hAla][NMeL]I[NMeA][Aze][NMePhe(4-CF3)][Sar][hPhe(3,5-F2-4-CF3)][Pro(4,4-F2)])) | 7.30 to 7.70
CC[C@H](C)[C@@H]1NC(=O)[C@H](CC(C)C)N(C)C(=O)C[C@@H](C)N(C)C(=O)[C@H]([C@@H](C)CC)N(C)C(=O)C2(CCCC2)NC(=O)[C@@H]2CCCN2C(=O)[C@H](CCc2ccc(C(F)(F)F)c(F)c2)NC(=O)CN(C)C(=O)[C@H](C2CCCC2)N(C)C(=O)[C@@H]2CCN2C(=O)[C@H](C)N(C)C1=O [Compound 909] (cyclo([Ac5c][NMeI][NMedβ3hAla][NMeL]I[NMeA][Aze][NMeGly(cPent)][Sar][hPhe(3-F,4-CF3)]P)) | 7.00 to 7.30
CC[C@H](C)[C@@H]1NC(=O)[C@H](CC(C)C)N(C)C(=O)C[C@@H](C(=O)N2CCCCC2)N(C)C(=O)[C@H](C(C)C)N(C)C(=O)C2(CCCC2)NC(=O)[C@@H]2CCCN2C(=O)[C@H](CCc2ccc(Cl)cc2)NC(=O)CN(C)C(=O)[C@H](CC2CCCCC2)N(C)C(=O)[C@@H]2CCN2C(=O)CN(C)C1=O [Compound 916] ([NMeL]I[Sar][Aze][NMeCha][Sar][hPhe(4-Cl)]P[Ac5c][NMeV][NMeD]-Piperidide; lactam N-11) | 6.30 to 7.00
CC[C@H](C)[C@@H]1NC(=O)[C@H](CC(C)C)N(C)C(=O)C[C@@H](C(=O)N2CCCC2)N(C)C(=O)[C@H](C2CCCC2)N(C)C(=O)C2(CCCC2)NC(=O)[C@@H]2CCCN2C(=O)[C@H](CCc2ccc(C(F)(F)F)c(F)c2)NC(=O)CN(C)C(=O)[C@H](C2CCCC2)N(C)C(=O)[C@@H]2CCN2C(=O)[C@H](C)N(C)C1=O [Compound 918] ([NMeL]I[NMeA][Aze][NMeGly(cPent)][Sar][hPhe(3-F,4-CF3)]P[Ac5c][NMeGly(cPent)][NMeD]-Pyrrolidide; lactam N-11) | 7.30 to 7.70
CC[C@H](C)[C@@H]1NC(=O)[C@H](CC2CCCC2)N(C)C(=O)C[C@@H](C(=O)N2CCC2)N(C)C(=O)[C@H](C2CCCC2)N(C)C(=O)C2(CCCC2)NC(=O)[C@@H]2CCCN2C(=O)[C@H](CCc2ccc(C(F)(F)F)c(Cl)c2)NC(=O)CN(C)C(=O)[C@H](CC2CCCCC2)N(C)C(=O)[C@@H]2CCN2C(=O)[C@H](C)NC1=O [Compound 921] ([NMeAla(cPent)]IA[Aze][NMeCha][Sar][hPhe(3-Cl-4-CF3)]P[Ac5c][NMeGly(cPent)][NMeD]-{Azetidin(1-yl)}; lactam N-11) | 7.30 to 7.70
